Results reported in PubChem BioAssay AID1259407 (Chemical Carcinogenesis Research Information System (CCRIS), 2018).
The source made the active and inactive calls. How the calls were made is not given here.

Tested on: CCRIS mutagenicity, Ames/micronucleus/aberration tests
Experiment: CCRIS mutagenicity studies

O=CC(Br)CBr (stereo not drawn)
mutagenic call (Test System: AMES SALMONELLA TYPHIMURIUM, Strain/Indicator: TA100, Metabolic Activation: NONE, Method: PREINCUBATION): active; positive | mutagenic call (Test System: AMES SALMONELLA TYPHIMURIUM, Strain/Indicator: TA100, Metabolic Activation: RAT, LIVER, MICROSOMES, Method: PREINCUBATION): active; positive | mutagenic call (Test System: UDS RAT HEPATOCYTES, Strain/Indicator: THY INCORP, Metabolic Activation: NONE): inactive; negative
